Article PMC9532970, “Rational design of photosynthetic reaction center protein maquettes” (Frontiers in Molecular Biosciences, 2022)
Where two headings read alike, the source gives them in different places.

Key:
RC maquette = test: UV/vis cofactor binding titration into RC maquette (no heme pre-bound); details: for Kd: electron acceptor titrated into 1.1-4.4 µM RC maquette, pH 7.0, fit to one-site binding equation (Eq. 2), read-out: dissociation constant (KD)
Protocol: (§1) Ultraviolet/visible absorbance spectroscopy (UV/vis) was carried out on a Varian Cary-50 spectrophotometer. Cofactor binding titrations were performed at room temperature using 1 ml samples of ∼1 μM RC maquette in quartz cuvettes. Protein concentrations were calculated by assuming that Trp and Tyr residues have extinction coefficients at 280 nm (ε280nm) of 5,500 M^−1 cm^−1 and 1,490 M^−1 cm^−1, respectively. Samples of Zn 5-phenyl 15-(p-carboxyphenyl) porphyrin (ZnPCP) and Zn Newkome porphyrin were provided by Tatiana Esipova from the research group of Sergei Vinogradov ([Kodali et al., 2017]). The Zn chlorins SE370 and SE375 were produced by the laboratory of Jonathan Lindsey following previously established methods ([Aravindu et al., 2013]; [Kodali et al., 2017]). Other tetrapyrroles were purchased from Frontier Scientific, Inc. Stock solutions of water-soluble cofactors were prepared in water, and insoluble tetrapyrroles were prepared in dimethyl sulfoxide stock solutions of 100–200 µM concentration. Heme B stock concentrations were measured by hemochrome assay ([Berry and Trumpower, 1987]). Stock concentrations of other tetrapyrrole cofactors were estimated by mass measurements.
(§2) For each titration, a cofactor stock solution was titrated into the protein solution in the cuvette. After each addition of cofactor, at least 10 min were allowed for equilibration before collecting a UV/vis spectrum. Cofactor was typically added in steps of 0.1 equivalents of cofactor per protein until after the binding capacity of the protein appeared to have been reached, at which point 0.2 equivalents of cofactor per protein were added at a time. Binding titrations continued until at total of at least three equivalents of cofactor per protein had been added. To determine dissociation constants, we used the following one-site binding equation: A=ctotɛfree+(ɛbound−ɛfree)KD+Ptot+ctot−(KD+Ptot+ctot)^2−4Ptotctot/2+b (2)
(§3) In Eq. 2, A represents the total absorbance at a given wavelength, c tot is the total cofactor concentration, P tot is the total protein concentration, K D is the dissociation constant, εfree is the extinction coefficient of unbound cofactor in solution, εbound is the extinction coefficient of protein-bound cofactor, and b is the absorbance of the sample when c tot is zero.

cyt. b 562 = details: read-out: KD of CoPPIX for cyt. b 562, cited from earlier work
[1] = target: RC maquette-heme B complex; test: UV/vis pigment binding titration into RC maquette with heme B bound; details: RC maquette (His124) with heme B bound to the acceptor site; for Kd: read-out: Dissociation constant (KD)
Protocol: as §1, §2, §3

DH maquette = test: UV/vis heme binding titration into DH maquette; details: ferric heme B into 0.5 µM DH maquette, 50 mM NaCl, 10 mM MOPS pH 7.5; read-out: dissociation constant (KD)

Kd (RC maquette) | Dissociation constant (KD), result in words [1] | Compound | also measured
250 nM | – | C=Cc1c(C)c2cc3[nH]c(cc4nc(cc5nc(cc1[nH]2)C(C)=C5CCC(=O)[O-])C(CCC(=O)[O-])=C4C)c(C)c3C=C.[Co+2] [CoPPIX, Co(III) protoporphyrin IX] | CoPPIX affinity relative to heme B affinity of the RC maquette (times weaker) (RC maquette; KD 250 nM vs <10 nM): about 25 times; Kd (cyt. b 562; lower end of literature range, ref Alcala-Torano et al., 2021): 45 nM; Kd (cyt. b 562; upper end of literature range, ref Sommer et al., 2016): 8900 nM
< 10 nM | – | CC(=O)C1=C(C)C2=Cc3c(C(C)=O)c(C)c4[n]3[Fe][n]3c(c(C)c(CCC(=O)O)c3=CC3=NC(=C4)C(C)=C3CCC(=O)O)=CC1=N2 [Fe(III)-DADPIX, Fe(III) 2,4-diacetyl deuteroporphyrin IX] | –
– | no binding detected | C1=Cc2nc1c(-c1ccccc1)c1ccc([n-]1)c(-c1ccncc1)c1nc(c(-c3ccccc3)c3ccc([n-]3)c2-c2ccncc2)C=C1.[Zn+2] [Zn meso-di(4-pyridyl)-diphenyl porphyrin] | –
– | – | O=C(O)c1ccc(-c2c3nc(c(-c4ccc(C(=O)O)cc4)c4ccc([nH]4)c(-c4ccc(C(=O)O)cc4)c4nc(c(-c5ccc(C(=O)O)cc5)c5ccc2[nH]5)C=C4)C=C3)cc1 [Zn meso-tetra(4-carboxyphenyl) prophyrin] | Kd [1]: 5000 nM
– | no binding detected | CCC1=C(C)c2cc3[n-]c(cc4[n-]c(cc5nc(cc1n2)C(C)=C5CC)c(C)c4CCC(=O)O)c(CCC(=O)O)c3C.[Zn+2] [Zn mesoporphyrin IX (ZnMPIX), Zn mesoporphyrin IX] | –
– | – | C=CC1=C(C)c2cc3[nH]c(cc4[nH]c(cc5nc(cc1n2)C(C)=C5C=C)c(C)c4CCC(=O)O)c(CCC(=O)O)c3C [Zn protoporphyrin IX (ZnPPIX), Zn protoporphyrin IX] | Kd [1]: 2000 nM
< 10 nM | – | C=CC1=C(C)c2cc3[n-]c(cc4[n-]c(cc5nc(cc1n2)C(C)=C5C=C)c(C)c4CCC(=O)O)c(CCC(=O)O)c3C.[Fe+2] [heme B] | Kd (DH maquette): < 10 nM
– | no binding detected | Zn chlorin e6 [Zn chlorin e6 (ZnCe6)] | –
